Measurements published in publication PMC11714206, “Massively Parallel Screening of Toll/Interleukin‐1 Receptor (TIR)‐Derived Peptides Reveals Multiple Toll‐Like Receptors (TLRs)‐Targeting Immunomodulatory Peptides” (Advanced Science, 2024).

Target: T1, MAL^TIR (Homo sapiens, UniProt P58753)
T1 construct: MAL (residues 79–221); 6xHis; made in house; host or cells: E. coli BL21 (DE3)
Assay: T‐Surf phage library (P8 and P3) selection against MAL^TIR, four rounds, NGS read counts
Format: binding
Settings: for P3_MAL Rank (after) / P3_MAL Rank (before): P3 library; for P8_MAL Rank (after) / P8_MAL Rank (before): P8 library; for Population: 4th round of selection against MAL TIR, share of NGS reads
Summary of the method: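 Four panning rounds on TIR domain adsorbed at 5 µg mL^−1; binding 1 h at 20–22 °C, elution with 100 mM HCl. Output: NGS read counts of round‐4 pools versus naïve library.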

[1] = selection against MAL, rank by count after grouping
[2] = selection against MAL, rank by count before grouping
[3] = P8_MAL: rank by count after grouping
[4] = P8_MAL: rank by count before grouping
[5] = selection against MAL TIR, rank by count after grouping
[6] = selection against MAL TIR, rank by count before grouping
[7] = selection against MAL, rank after grouping
[8] = selection against MAL, rank before grouping
[9] = P3_MAL pool: P3 T-Surf phage library
[10] = P3_MAL: rank by count after grouping
[11] = P3_MAL: rank by count before grouping
[12] = P8_MAL pool: P8 T-Surf phage library
[13] = 4R selection against MAL, rank after grouping
[14] = 4R selection against MAL, rank before grouping

T1 sequence (P58753 79-221): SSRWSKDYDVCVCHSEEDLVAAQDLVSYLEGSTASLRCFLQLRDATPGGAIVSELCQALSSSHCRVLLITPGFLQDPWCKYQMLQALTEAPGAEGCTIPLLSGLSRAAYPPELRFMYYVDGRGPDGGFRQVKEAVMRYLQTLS

LGFLRHLRHHLQAKDH
P3_MAL Rank (after) [1]: 693
P3_MAL Rank (before) [2]: 2082

VEPTQVRTQSGAAENA
P3_MAL Rank (after) [1]: 753
P3_MAL Rank (before) [2]: 1651

WDDPWFWDKLHYAMPR
Rank (after) [3]: 463
Rank (before) [4]: 1422

HQAFWNRLWAKLKPP
P3_MAL Rank (after) [1]: 755
P3_MAL Rank (before) [2]: 2873

KWFWDKLIYPLSRNPQ
P3_MAL Rank (after) [5]: 239
P3_MAL Rank (before) [6]: 3510

AFLYTFLINLTHPPI
Rank (after) [3]: 190
Rank (before) [4]: 1854

NQWRNALTAAAKLSGG
P3_MAL Rank (after) [7]: 564
P3_MAL Rank (before) [8]: 3384

LFFWGSLRQLLRNDDG
P8_MAL Rank (after) [5]: 260
P8_MAL Rank (before) [6]: 2058

HLLKWKEALHQFHSWV
Population [9]: 0.00488%

AFFWEQLRTLLSKPTM
Rank (after) [3]: 433
Rank (before) [4]: 1673

AYAYSRLVLLPLLELS
Rank (after) [3]: 472
Rank (before) [4]: 1943

WFYERLGSLMLRDTNV
P8_MAL Rank (after) [7]: 555
P8_MAL Rank (before) [8]: 1247

YAFTGHLHRYLVQRGEP
Rank (after) [10]: 443
Rank (before) [11]: 1397

RNFVAYLFQELANKGI
Population [12]: 0.00463%

WSYERLVRLILRDTKV
P8_MAL Rank (after) [7]: 539
P8_MAL Rank (before) [8]: 1406

KELEKYQLAILERDFQ
P3_MAL Rank (after) [7]: 489
P3_MAL Rank (before) [8]: 3596

AFLWAQLNSVLGNPTM
Rank (after) [3]: 156
Rank (before) [4]: 1778

DPQDLQWFYERLVSLI
Rank (after) [3]: 447
Rank (before) [4]: 1990

QLIQQWMNCTCTSCI
Rank (after) [3]: 167
Rank (before) [4]: 2379

YAARANSGFHTFRDND
P3_MAL Rank (after) [1]: 740
P3_MAL Rank (before) [2]: 1489

KERLHQWKLALTQAA
P3_MAL Rank (after) [7]: 526
P3_MAL Rank (before) [8]: 3601

AFFWTHLKNLPRNPTF
P8_MAL Rank (after) [5]: 285
P8_MAL Rank (before) [6]: 1721

RFFQNKMRYHLQQLQH
P3_MAL Rank (after) [7]: 487
P3_MAL Rank (before) [8]: 2617

YAFTDHLHRYVVQRGV
P3_MAL Rank (after) [5]: 209
P3_MAL Rank (before) [6]: 1463

KMQKWKEALHQFHSWV
Rank (after) [10]: 108
Rank (before) [11]: 233

PNLRTKLLNYLIRTKT
P3_MAL Rank (after) [5]: 280
P3_MAL Rank (before) [6]: 2694

TFPGHLYNALVQAGIL
Rank (after) [3]: 180
Rank (before) [4]: 2633

WFMMKFRTVLYHVNYV
Rank (after) [3]: 398
Rank (before) [4]: 1377

NQWRNSLTAAANLSGR
Rank (after) [10]: 176
Rank (before) [11]: 3342

PNLRTKVLDYLLRTKT
Rank (after) [10]: 406
Rank (before) [11]: 2702

HHKAAMAKRWRNMKN
Rank (after) [10]: 401
Rank (before) [11]: 2818

YAFTAICIVIWCSVA
Rank (after) [10]: 133
Rank (before) [11]: 726

KWFWDKLIYALSRNPH
P8_MAL Rank (after) [5]: 231
P8_MAL Rank (before) [6]: 1067

WFNIRLVTVLDHVNDV
P8_MAL Rank (after) [7]: 573
P8_MAL Rank (before) [8]: 1391

DLFLSKLSQHILKREK
Population [9]: 0.00376%

YTALTNSGFHTFLDNE
P3_MAL Rank (after) [5]: 217
P3_MAL Rank (before) [6]: 1547

AFFWQQLKSVPGNPTM
Rank (after) [3]: 154
Rank (before) [4]: 1718

AFLCAHLKSVLGNPTI
Rank (after) [3]: 461
Rank (before) [4]: 1804

MSHLYQGLQHRGIFTF
Rank (after) [10]: 396
Rank (before) [11]: 2943

YAFTGHVDRYLVQRGV
P3_MAL Rank (after) [5]: 285
P3_MAL Rank (before) [6]: 1360

NLIQGWLLYRLLKIEK
P8_MAL Rank (after) [5]: 286
P8_MAL Rank (before) [6]: 2678

PESGKLASGAGKSGQT
P3_MAL Rank (after) [13]: 609
P3_MAL Rank (before) [14]: 2638

WFYERLVSLIMRDNIV
P8_MAL Rank (after) [13]: 634
P8_MAL Rank (before) [14]: 1183

RNVMSHLYQGLQNRGI
Rank (after) [10]: 441
Rank (before) [11]: 2614

YAFTGHLHHYLVQRGV
Population [9]: 0.00564%

LLIYRFVKKRNYLLGH
Rank (after) [10]: 416
Rank (before) [11]: 2085

PNLRNKVLNYLLRTKT
P3_MAL Rank (after) [7]: 574
P3_MAL Rank (before) [8]: 2748

LKVESWLQTLAKAGKL
P3_MAL Rank (after) [1]: 763
P3_MAL Rank (before) [2]: 2262

RKFVAYPFQALANKGI
P8_MAL Rank (after) [1]: 703
P8_MAL Rank (before) [2]: 2255

DLLNGFIALKSTVIEN
P8_MAL Rank (after) [1]: 717
P8_MAL Rank (before) [2]: 1982

WFFERLVSLILRDTKV
Population [12]: 0.0034%

SLQYAHLRWLGIRAFL
P8_MAL Rank (after) [5]: 206
P8_MAL Rank (before) [6]: 2523

KNLFYDLVSKNIRTFM
P3_MAL Rank (after) [1]: 712
P3_MAL Rank (before) [2]: 3473

YAFTSHLYDRLQRSGI
P3_MAL Rank (after) [13]: 606
P3_MAL Rank (before) [14]: 1470

NQWRNALTAPANLSGR
P3_MAL Rank (after) [5]: 228
P3_MAL Rank (before) [6]: 3389

KLLWEKCTFFLPSLSR
Rank (after) [3]: 429
Rank (before) [4]: 2726

HFFGFN*KAFWAKPAX
Population [12]: 0.00309%

YLKWGYPGLWDRLRFA
P3_MAL Rank (after) [5]: 212
P3_MAL Rank (before) [6]: 1517

NQWSNSLTAAANLSGW
Rank (after) [10]: 186
Rank (before) [11]: 3419

SNLRPKVLNYLMRTKI
P3_MAL Rank (after) [7]: 531
P3_MAL Rank (before) [8]: 1326

SDFIQLINLLVKPKII
P8_MAL Rank (after) [7]: 558
P8_MAL Rank (before) [8]: 2443

YFLHFLLLAVRKPSI
P8_MAL Rank (after) [5]: 196
P8_MAL Rank (before) [6]: 791

AFLYNFFNDLTHPTIY
P8_MAL Rank (after) [13]: 582
P8_MAL Rank (before) [14]: 1890

FAFTGHLHRYLVQRGV
Population [9]: 0.00338%

VEPTQVRKQSGAVEM
P3_MAL Rank (after) [1]: 716
P3_MAL Rank (before) [2]: 1671

VFLYTFLINLTHPTNF
Population [12]: 0.00309%

WFLFTFLINLTHPTNF
P8_MAL Rank (after) [7]: 523
P8_MAL Rank (before) [8]: 1314

TFLIHQNNARMHANIL
P8_MAL Rank (after) [5]: 253
P8_MAL Rank (before) [6]: 2545

LKEESWRQAQEKAGKL
P3_MAL Rank (after) [1]: 744
P3_MAL Rank (before) [2]: 2310

DTILKKGESIAPELLG
P8_MAL Rank (after) [7]: 548
P8_MAL Rank (before) [8]: 2000

YAFTGHLHRYLV*RGV
Population [9]: 0.00564%

FMSHLYQGLKIVAFL
P3_MAL Rank (after) [7]: 523
P3_MAL Rank (before) [8]: 1204

SFLYTFLITLTHPTTF
P8_MAL Rank (after) [5]: 266
P8_MAL Rank (before) [6]: 1447

WFYERLVSLILRVTKI
P8_MAL Rank (after) [7]: 553
P8_MAL Rank (before) [8]: 1199

RNNFIGHLYQALYRI
P8_MAL Rank (after) [1]: 676
P8_MAL Rank (before) [2]: 2274

LQNHCKLALTKVANLV
P3_MAL Rank (after) [5]: 230
P3_MAL Rank (before) [6]: 2137

RLRKWKEALQQFHSWV
Rank (after) [10]: 139
Rank (before) [11]: 2548

WFFERLVKLILRDTKV
P8_MAL Rank (after) [1]: 712
P8_MAL Rank (before) [2]: 1114

TFLGHLYNALLQPGIH
Rank (after) [3]: 181
Rank (before) [4]: 2616

LQNQWKLALTKVAKLE
P3_MAL Rank (after) [5]: 236
P3_MAL Rank (before) [6]: 2160

WIYERLVSRILRDTKV
Rank (after) [3]: 163
Rank (before) [4]: 1430

KWFWDKLIYALSRIR
P3_MAL Rank (after) [7]: 545
P3_MAL Rank (before) [8]: 3495

YFLLFVLFGRSAIGSM
P8_MAL Rank (after) [1]: 713
P8_MAL Rank (before) [2]: 1459

YAFTRHLHRYLVHRGV
P3_MAL Rank (after) [1]: 714
P3_MAL Rank (before) [2]: 1466

LKVERWRQALEKADKL
P3_MAL Rank (after) [5]: 215
P3_MAL Rank (before) [6]: 2299

RFYEAQLILVLRNTKM
P8_MAL Rank (after) [13]: 672
P8_MAL Rank (before) [14]: 2302

CFLQNLCYALTYRPAT
P3_MAL Rank (after) [13]: 637
P3_MAL Rank (before) [14]: 1215

YFLNFLLFSRPETDYI
Rank (after) [3]: 457
Rank (before) [4]: 1516

RNYVAYLFQALASKGI
Rank (after) [3]: 407
Rank (before) [4]: 2249

NQWRNALTAAANLIGW
Population [9]: 0.00413%

FLNWPRNPKEHRHFWH
P3_MAL Rank (after) [5]: 241
P3_MAL Rank (before) [6]: 1181

RSFVASLFQALANKGI
P8_MAL Rank (after) [5]: 240
P8_MAL Rank (before) [6]: 2178

AFFWEQLRPALKERLP
P3_MAL Rank (after) [1]: 746
P3_MAL Rank (before) [2]: 1787

RGFREGLWRLLELSKK
Population [9]: 0.00902%
Rank (after) [10]: 103
Rank (before) [11]: 111

SSCREGLWRLLELCKK
P3_MAL Rank (after) [13]: 635
P3_MAL Rank (before) [14]: 3210

YFLHFLLFSRLDTVYI
Rank (after) [3]: 464
Rank (before) [4]: 1504

LFFWESLKQLLRRAGL
P8_MAL Rank (after) [5]: 252
P8_MAL Rank (before) [6]: 2096

GCLYQAFARAGFKIFM
P3_MAL Rank (after) [1]: 707
P3_MAL Rank (before) [2]: 1752

WFYKRLVSLILRDTKV
Population [12]: 0.00402%

LCFCESLKQLLRSDGR
Rank (after) [3]: 110
Rank (before) [4]: 2161

WFYERLVSLILRDTKE
Population [12]: 0.00309%

AYANFRQGLLRLPELLR
P8_MAL Rank (after) [5]: 278
P8_MAL Rank (before) [6]: 1946

LQNQWRNALTAAANLSGW
Rank (after) [10]: 422
Rank (before) [11]: 2140

RNFVAYLFKALANTGI
P8_MAL Rank (after) [7]: 526
P8_MAL Rank (before) [8]: 2219

TFLGHLYNALVQTGIP
Rank (after) [3]: 112
Rank (before) [4]: 2569

PNLRTKVLNYLMRTK
Rank (after) [10]: 174
Rank (before) [11]: 955
